Results taken from paper PMC7301643 (Biochemistry, 2020).

Assays:
[1] = target: T1, capping protein (CP, CPα1β2) (Mus musculus, UniProt P47753+P47757); assay: Fluorescence anisotropy titration of CP into TAMRA-labeled CPI-motif peptide; format: binding
[2] = target: T1, capping protein (CP, CPα1β2); assay: Isothermal calorimetry; format: binding; conditions: for ΔG°obs, ITC: ΔG° = −RT ln Ka
CP:F-actin barbed end = CP:F-actin barbed end (Mus musculus, UniProt P47753+P47757); assay: Pyrene-actin polymerization; format: biochemical, Oryctolagus cuniculus (actin); conditions: at concentrations higher than 1 μM
CP bound to F-actin = CP bound to F-actin (Mus musculus, UniProt Q5RKN9+Q923G3); assay: Kd for CPI binding to CP bound to F-actin, calculated from thermodynamic cycle; set-up: species or system Oryctolagus cuniculus (actin)
[3] = independent experiment 1 (first line), 25 °C, pH 7.2
[4] = independent experiment 2 (second line)

Ac-WASHCAP-NH2 [WASHCAP]
Kd [1]: 8.5 ± 0.8 nM
N (stoichiometry), ITC [2, 3]: 0.985 ± 0.004
TΔS°obs, ITC [2, 3]: -14.1 kcal/mol
ΔH°obs, ITC [2, 3]: -24.6 ± 0.1 kcal/mol
ΔG°obs, ITC [2, 3]: -10.56 ± 0.04 kcal/mol
N (stoichiometry), ITC [2, 4]: 0.971 ± 0.009
TΔS°obs, ITC [2, 4]: -18.3 kcal/mol
ΔH°obs, ITC [2, 4]: -28.9 ± 0.4 kcal/mol
ΔG°obs, ITC [2, 4]: -10.60 ± 0.10 kcal/mol
interference of peptide with actin polymerization (CP:F-actin barbed end): interfered with polymerization
Kd (CP bound to F-actin): 110 ± 10 nM
